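In this assay, cells in 96-well plates receive the compound at five concentrations for 48 hours. Endpoints are linearly interpolated between the surrounding concentrations. The concentration for 50% growth inhibition is given as GI50. Definition used: TGI = concentration required for complete inhibition of growth.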 Where a SMILES comes first, the peptide text is derived from it. [ ]: non-standard residue; d: D form. β3hI = CC[CH](C)[CH](N)CC(=O)O
Assays:
Assay in all cases: NCI-60 cell line screen, 48 h
NCI-H23 lung = test system: NCI-H23 lung
UO-31 renal = test system: UO-31 renal
UACC-62 melanoma = test system: UACC-62 melanoma
A549 NSCLC = test system: A549 NSCLC
NCI-H522 lung = test system: NCI-H522 lung
SK-OV-3 ovarian = test system: SK-OV-3 ovarian
LOX IMVI melanoma = test system: LOX IMVI melanoma
SK-MEL-28 melanoma = test system: SK-MEL-28 melanoma
SK-MEL-5 melanoma = test system: SK-MEL-5 melanoma
UACC-257 melanoma = test system: UACC-257 melanoma
MCF7 breast = test system: MCF7 breast
OVCAR-8 ovarian = test system: OVCAR-8 ovarian
EKVX NSCLC = test system: EKVX NSCLC
SK-MEL-2 melanoma = test system: SK-MEL-2 melanoma
RPMI-8226 leukemia = test system: RPMI-8226 leukemia
SNB-19 CNS = test system: SNB-19 CNS
786-0 renal = test system: 786-0 renal
MALME-3M melanoma = test system: MALME-3M melanoma

Compound | TGI (NCI-H23 lung) [µM] | TGI (UO-31 renal) [µM] | TGI (UACC-62 melanoma) [µM] | TGI (A549 NSCLC) [µM] | TGI (NCI-H522 lung) [µM] | TGI (SK-OV-3 ovarian) [µM] | TGI (LOX IMVI melanoma) [µM] | TGI (SK-MEL-28 melanoma) [µM] | TGI (SK-MEL-5 melanoma) [µM] | TGI (UACC-257 melanoma) [µM] | TGI (MCF7 breast) [µM] | TGI (OVCAR-8 ovarian) [µM] | TGI (EKVX NSCLC) [µM] | TGI (SK-MEL-2 melanoma) [µM] | TGI (RPMI-8226 leukemia) [µM] | TGI (SNB-19 CNS) [µM] | TGI (786-0 renal) [µM] | TGI (MALME-3M melanoma) [µM] | GI50 (UACC-257 melanoma) [µM] | GI50 (SK-MEL-2 melanoma) [µM]
CC1(C)CN=C(Nc2cccc(C(F)(F)F)c2)S1 | > 100 | > 100 | > 100 | > 100 | > 100 | > 100 | > 100 | > 100 | > 100 | > 100 | > 100 | > 100 | > 100 | > 100 | > 100 | > 100 | > 100 | > 100 | – | –
N/N=C1\CCCc2c1no[n+]2[O-] | > 100 | > 100 | > 100 | > 100 | > 100 | > 100 | > 100 | > 100 | > 100 | > 100 | > 100 | > 100 | > 100 | > 100 | > 100 | > 100 | > 100 | > 100 | – | –
CCOC(=O)c1[nH]c2ccccc2c1C(=O)C[C@H](NC(=O)C(F)(F)F)C(=O)OC | > 100 | > 100 | – | > 100 | > 100 | – | > 100 | > 100 | > 100 | > 100 | > 100 | > 100 | > 100 | > 100 | > 100 | > 100 | > 100 | > 100 | – | –
COc1ccc2[nH]c3c(c2c1)COc1ccccc1C3=O | > 100 | > 100 | > 100 | > 100 | > 100 | > 100 | > 100 | > 100 | > 100 | > 100 | > 100 | > 100 | > 100 | > 100 | > 100 | > 100 | > 100 | > 100 | – | –
CN(C)c1ccc(/C=C(\NC(=O)c2ccccc2)C(=O)NC(CCC(=O)O)C(=O)O)cc1 (stereo not drawn) | > 100 | > 100 | > 100 | > 100 | > 100 | > 100 | > 100 | > 100 | > 100 | > 100 | > 100 | > 100 | > 100 | > 100 | > 100 | > 100 | > 100 | > 100 | – | –
CC(=O)N[C@H]1CCCC[C@@H]1OC(C)=O | > 100 | – | > 100 | – | > 100 | > 100 | > 100 | > 100 | > 100 | > 100 | > 100 | > 100 | > 100 | > 100 | > 100 | – | > 100 | > 100 | – | –
COc1nc2sc3c(c2c(=O)n1CCCSSCCCn1c(OC)nc2sc4c(c2c1=O)CCCC4)CCCC3 | > 100 | > 100 | > 100 | > 100 | > 100 | > 100 | > 100 | > 100 | > 100 | > 100 | > 100 | > 100 | > 100 | > 100 | > 100 | > 100 | > 100 | > 100 | – | –
c1ccc(/N=N/Nc2ccc(-c3nc4ccccc4[nH]3)cc2)nc1 | 95.8 | 49.3 | – | 36.4 | 33.9 | 27.9 | 43.7 | 38.7 | > 100 | 62.6 | 23.4 | 47.2 | 52.8 | 62.5 | 11.6 | 44 | 27.5 | 29.2 | – | –
CCN(CC)CCCNc1nc2ccccc2c2[nH]c3ccc(OC)cc3c12 | 2.93 | > 10 | > 10 | 3.37 | 2.88 | > 10 | 2.9 | 3.11 | 3.12 | 3.2 | 2.87 | 2.41 | 3.31 | 3.16 | 9.41 | 4.25 | 2.41 | 3.41 | – | –
CCOC(=O)CCC(NC(=O)Cc1ccc(Oc2nc3ccccc3nc2-c2cccs2)cc1)C(=O)OCC (stereo not drawn) | > 100 | 72.7 | > 100 | 62.8 | > 100 | – | > 100 | > 100 | > 100 | > 100 | > 100 | 14.2 | > 100 | > 100 | > 100 | 37.2 | 15.3 | > 100 | – | –
c1cncc(-c2ncc3cccnc3n2)c1 | > 100 | > 100 | > 100 | > 100 | > 100 | > 100 | > 100 | – | > 100 | > 100 | > 100 | > 100 | > 100 | > 100 | > 100 | > 100 | > 100 | > 100 | – | –
CCC(C)C(CC(=O)N1CCCC1C(=O)NC(C(=O)NC(C(=O)NCC(=O)NC(CC(N)=O)C(=O)NC(C(=O)NC(C(=O)NC(CCCCN)C(N)=O)C(C)CC)C(C)CC)C(C)C)C(C)CC)NC(=O)C(N)C(C)CC (stereo not drawn) (H-I[β3hI]PIVGNIIK-NH2; configuration not given here) | > 50 | > 50 | > 50 | > 50 | > 50 | > 50 | > 50 | > 50 | > 50 | > 50 | > 50 | > 50 | > 50 | > 50 | > 50 | > 50 | > 50 | > 50 | – | –
O=[N+]([O-])c1cc(-[n+]2cc([O-])on2)ccc1F | 33.5 | 13.1 | 30.8 | 33.4 | 22.2 | 35.8 | 31.1 | 29.8 | 28.4 | 31.6 | 29.4 | 30.9 | 34.8 | 31 | > 100 | 21.3 | 24 | 29 | – | –
O=C1C=C(NCCc2cc(Br)c(O)c(Br)c2)C(=O)c2ncccc21 | 1.66 | 20.2 | 2.93 | 4.79 | 6.1 | 33.4 | 4.97 | 3.5 | 2.57 | 2.92 | 5.29 | 27.3 | 22 | 4.1 | 18.3 | 8.77 | 13.6 | 2.49 | – | –
CN(C1=NCCO1)c1cccc2c1CCCC2 | 8.81 | – | > 10 | > 10 | > 10 | > 10 | 5.27 | > 10 | 4.84 | > 10 | > 10 | > 10 | > 10 | > 10 | > 10 | > 10 | > 10 | 9.3 | – | –
COc1cc2c(c3c1c(=O)c1ccccc1n3C)C=CC1(CCCCC1)O2 | > 10 | 0.255 | 9.86 | 4.43 | > 10 | > 10 | > 10 | > 10 | > 6.15 | > 10 | > 9.55 | > 10 | > 10 | 9.69 | > 5.04 | > 10 | > 10 | > 10 | – | –
CCCCn1c2c(n(CCCC)c1=S)-c1c(n(CCCC)c(=S)n1CCCC)SSSS2 | 14.3 | 2.64 | 4.87 | > 95.1 | 0.274 | > 100 | 12.1 | 31.6 | 8.95 | 9.13 | > 100 | 18.1 | 23.2 | 6.8 | 10.2 | > 100 | 19.4 | 2.03 | – | –
CN(C)c1ccc(/C=C(\NC(=O)c2ccccc2)C2NC(Cc3c[nH]c4ccccc34)C(=O)O2)cc1 (stereo not drawn) | > 100 | > 100 | > 100 | > 100 | 24.4 | > 100 | > 54.3 | > 100 | > 100 | > 100 | > 100 | > 100 | > 100 | > 100 | > 49 | > 100 | > 100 | 79.6 | – | –
CCOC(=O)NC(NC(C)CC)(C(F)(F)F)C(F)(F)F (stereo not drawn) | > 100 | > 100 | > 100 | > 100 | > 100 | – | > 100 | > 100 | > 100 | > 100 | > 100 | > 100 | > 100 | > 100 | > 100 | > 100 | > 100 | > 100 | – | –
NS(=O)(=O)c1ccc(CNc2nc(-c3cccs3)nc3ccc(I)cc23)cc1 | 38.4 | 4.45 | 31.5 | 28.5 | 28.2 | 52.6 | 29.3 | 40.2 | 27 | 27.5 | 16.1 | 37.7 | 29.3 | 32.9 | 49.5 | 39.7 | 37.6 | 27.9 | 14 | 17.8
O=C(O)CC/C(=N\Nc1nsc2ccccc12)c1ccc(Cl)cc1 | 59.2 | > 67.1 | 50.6 | > 82.2 | > 100 | 89.6 | 25.7 | 37.4 | > 31.6 | > 67.4 | > 100 | > 100 | > 100 | > 100 | 45.9 | > 100 | > 100 | > 100 | – | –
Oc1ccc(Cn2c(-c3ccc(O)c(O)c3)nc3ccccc32)cc1O | 75.4 | 47.3 | – | 66.2 | 17.1 | 59.6 | 26 | 78 | 50.9 | > 100 | > 100 | 25.5 | 75.7 | 39 | 46.1 | 83.4 | 29 | 41.4 | – | –
O=C(NC1=NC2C=CC([N+](=O)[O-])=CC2S1)C(=O)Nn1c(=S)[nH]c2ccccc2c1=O (stereo not drawn) | > 100 | > 100 | > 100 | > 100 | > 100 | > 100 | > 100 | > 100 | > 100 | > 100 | > 100 | > 100 | > 100 | > 100 | > 100 | 72.7 | > 100 | > 100 | – | –
CC(C)NC(=O)OCc1c(COC(=O)NC(C)C)n(C)c2c1ccc1ccccc12 | 3.17 | 4.09 | 2.92 | 23.5 | 0.298 | 22.2 | 2.6 | 5.75 | 6.63 | 2.99 | 1.88 | 4.5 | 10.4 | 4.09 | 3.92 | 3.74 | 2.5 | 2.24 | – | –
O=C(CCCl)NNC1=NCCN1 | > 100 | > 100 | > 100 | > 100 | > 100 | > 100 | > 100 | > 100 | > 100 | > 100 | > 100 | > 100 | > 100 | > 100 | > 100 | > 100 | > 100 | > 100 | – | –
O=c1[nH]nc(Cc2ccc(Cl)cc2)n1/N=C\c1ccc(/C=N/n2c(Cc3ccc(Cl)cc3)n[nH]c2=O)cc1 | > 100 | > 100 | > 100 | > 100 | > 100 | – | > 100 | > 100 | > 100 | > 100 | > 100 | > 100 | > 100 | > 100 | > 100 | > 100 | 53.1 | > 100 | – | –
